Reference: PubChem BioAssay (NCI)
Several values for one entry are separate records, joined by “and”; a condition that tells them apart may be missing. Equal values may be shown once.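 A five-concentration, 48-hour dose response in 96-well plates underlies each endpoint, interpolated linearly between surrounding concentrations. GI50: concentration for 50% inhibition of growth. At the TGI there is no net growth.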

Tests used:
Assay in all cases: NCI-60 cell line screen, 48 h
EKVX NSCLC = system: EKVX NSCLC
HCT-15 colon = system: HCT-15 colon
LXFL 529 NSCLC = system: LXFL 529 NSCLC
NCI-H226 lung = system: NCI-H226 lung
NCI-H460 lung = system: NCI-H460 lung
SF-268 CNS = system: SF-268 CNS
SNB-78 CNS = system: SNB-78 CNS
BT-549 breast = system: BT-549 breast
DU-145 prostate = system: DU-145 prostate
MCF7 breast = system: MCF7 breast

Row | Structure (SMILES) | TGI (EKVX NSCLC) | TGI (HCT-15 colon) | TGI (LXFL 529 NSCLC) [µM] | TGI (NCI-H226 lung) [µM] | TGI (NCI-H460 lung) [µM] | TGI (SF-268 CNS) [µM] | TGI (SNB-78 CNS) [µM] | GI50 (HCT-15 colon) [µM] | GI50 (LXFL 529 NSCLC) [µM] | GI50 (NCI-H226 lung) [µM] | GI50 (NCI-H460 lung) [µM] | GI50 (SF-268 CNS) [µM] | GI50 (SNB-78 CNS) [µM] | GI50 (BT-549 breast) [µM] | TGI (BT-549 breast) [µM] | GI50 (DU-145 prostate) [µM] | TGI (DU-145 prostate) | GI50 (EKVX NSCLC) | GI50 (MCF7 breast) | TGI (MCF7 breast)
1 | O=C1CSc2cc([N+](=O)[O-])ccc2N1 | > 100 µM | > 100 µM | > 100 | > 100 | > 100 | > 100 | > 100 | – | – | – | – | – | – | – | – | – | – | – | – | –
2 | CCN(CC)CC(=N)N(CC)c1ccccc1 | > 100 µM | > 100 µM | > 100 | > 100 | > 100 | > 100 | > 100 | – | – | – | – | – | – | – | – | – | – | – | – | –
3 | N.N.O=P([O-])([O-])C1(P(=O)([O-])[O-])CCCCCN1.[Pt+2] | – | > 100 µM | > 100 | > 100 | > 100 | > 100 | > 100 | > 100 | > 100 | > 100 | > 100 | 76.6 | 78.4 | – | – | – | – | – | – | –
4 | Cn1c(=O)c2/c(n(C)c1=O)=N\C=c1\c(=O)n(C)c(=O)n(C)\c1=N\C=2 | > 100 µM | > 100 µM | > 100 | – | > 100 | > 100 | > 100 | – | – | – | – | – | – | – | – | – | – | – | – | –
5 | Cc1ccc(C(=O)CC2=Nc3nnc(CCCCCCCc4nnc5n4C(=O)C(CC(=O)c4ccc(C)cc4)=N5)n3C2=O)cc1 | > 100 µM | > 100 µM | > 100 | > 100 | > 100 | > 100 | – | – | – | – | – | – | – | – | – | – | – | – | – | –
6 | O=C(/C=C\c1cccc2ccccc12)c1cccc2ccccc12 | 27.6 µM | 19.6 µM | 13.6 | 25 | – | 22.1 | – | – | 2.9 | 12.2 | – | 4.74 | – | – | – | – | – | – | – | –
7 | CC(=O)[CH-]C(=O)c1ccccc1.CC(=O)[CH-]C(=O)c1ccccc1.CC[O-].O=C1c2ccccc2C(=O)c2c1ccc(O)c2[O-].[Ti+4] | 83.2 µM | > 100 µM | > 100 | > 100 | > 100 | > 100 | – | – | – | – | – | – | – | – | – | – | – | – | – | –
8 | O=NN(CCCl)C(=O)NC1CCC(CC2CCC(NC(=O)N(CCCl)N=O)CC2)CC1 (stereo not drawn) | > 100 µM | > 76.9 µM | > 100 | > 100 | > 100 | > 52.4 | > 87.3 | – | – | – | – | – | – | – | – | – | – | – | – | –
9 | O=S1Nc2c(Cl)cc(Cl)c(Cl)c2S1 (stereo not drawn) | > 100 µM | > 100 µM | > 100 | > 100 | > 100 | > 100 | > 100 | – | – | – | – | – | – | – | – | – | – | – | – | –
10 | OCCN1CCN(CC/C=C2/c3ccccc3Sc3ccc(Cl)cc32)CC1 | 31.3 µM | 26.2 µM | 17.9 | 28.2 | 16.3 | 28.3 | 30.2 | – | – | – | – | – | – | – | – | – | – | – | – | –
11 | Cc1cccc2c(O)cc(=O)oc12 | > 100 µM | – | > 100 | > 100 | > 100 | > 100 | > 100 | – | – | – | – | – | – | – | – | – | – | – | – | –
12 | CC1=NN(c2nc(N)nc(/C=C\c3ccc([N+](=O)[O-])s3)n2)C(C)(C)C1 | > 100 µM | > 100 µM | – | > 100 | > 100 | > 100 | – | > 100 | – | > 100 | > 100 | > 100 | – | > 100 | > 100 | > 100 | > 100 µM | > 100 µM | > 100 µM | > 100 µM
13 | CCSc1ccc(C2C(Br)C(=O)N2c2cc(OC)c(OC)c(OC)c2)cc1 (stereo not drawn) | > 100 µM | 18.2 µM | – | 43.5 | 14.2 | 52.7 | – | 0.21 | – | 3.11 | 0.539 | 1.18 | – | 0.525 | 11.8 | 0.349 | > 100 µM | 0.639 µM | 0.0447 µM | 17 µM
14 | CCC[CH2][Sn]1([CH2]CCC)[O]CC(C)[O]1 (stereo not drawn) | 4 µM | 2.35 µM | 1.35 | 4.62 | 13.9 | – | 0.909 | 1.1 | 0.149 | 2.11 | 2.94 | – | 0.301 | – | – | – | – | 1.83 µM | – | –
15 | CC(=O)[CH-]C(C)=O.CC(=O)[CH-]C(C)=O.CC[O-].CC[O-].[Ti+4] | – | > 100 µM | > 100 | > 100 | > 100 | > 100 | – | > 100 | > 100 | > 100 | > 100 | > 100 | – | – | – | – | – | – | – | –
16 | CN(C)CC/C(=N\Nc1ccc(Cl)cc1Cl)c1ccccc1 | 43.1 µM | 24.9 µM | 25.9 | – | 28.3 | – | 27.6 | – | – | – | – | – | – | – | – | – | – | – | – | –
17 | CNCCN=c1ccc2c3c1c(O)c1c(O)ccc(=O)c1c3[nH]n2CCNCCO | 10.5 µM and 3.5 µM | 24.8 µM and 41.2 µM | – | 0.336 | 1.21 | 2.57 | 10.5 | 1.52 | – | 0.000924 | 0.000851 | – | – | – | 2.43 | – | 1.27 µM and 0.942 µM | 1.84 µM and 0.889 µM | 0.0568 µM and 0.05 µM | 7.51 µM and 5.2 µM
18 | C/C=N\N1C(=O)c2ccccc2C1=O | > 100 µM | > 100 µM | > 100 | > 100 | > 100 | > 100 | > 100 | – | – | – | – | – | – | – | – | – | – | – | – | –
19 | C[C@]12CCC(=O)C=C1CC[C@@H]1C2CC[C@]2(C)c3nn(-c4ccccc4)nc3CC12 (stereo partly drawn) | > 100 µM | > 100 µM | > 100 | > 100 | > 100 | > 100 | > 100 | – | – | – | – | – | – | – | – | – | – | – | – | –
20 | CC(O)c1cc(C(=O)N[C@@H](C)Cn2ccc(-c3ccc(C#N)c(Cl)c3)n2)n[nH]1 (stereo partly drawn) | > 100 µM | > 100 µM | – | > 100 | > 100 | > 100 | – | > 100 | – | 58.5 | > 100 | > 100 | – | 19.7 | 77.7 | > 100 | > 100 µM | 36.8 µM | 30.7 µM | > 100 µM
21 | O=c1oc2c(C(F)(F)F)cccc2cc1-c1csc(Nc2ccc(OCCF)cc2)n1 | > 100 µM | > 100 µM | – | 72.3 | – | > 60.5 | – | 0.0389 | – | 0.587 | 0.0357 | 0.086 | – | 0.0387 | 6.34 | 0.0462 | > 50.8 µM | 0.0556 µM | 0.0427 µM | > 37.6 µM
22 | CS(=O)(=O)N(c1cc(-c2ccc3ncnc(Nc4cccc(Cl)c4)c3c2)cnc1Cl)S(C)(=O)=O | 2.25 µM | 6.99 µM | – | 9.75 | > 100 | 12.7 | – | 0.403 | – | 1.04 | 0.591 | 0.49 | – | 0.318 | 3.03 | 0.508 | 14.1 µM | 0.357 µM | 0.23 µM | 9.69 µM
